Data taken from PMC1950744, “Transcription Termination Defective Mutants of Rho: Role of Different Functions of Rho in Releasing RNA from the Elongation Complex” (Journal of Molecular Biology, 2007).

What was measured:
[1] = target: T1, Rho (Escherichia coli, UniProt P0AG30, G51V); experiment: UV cross-linking of [γ-32P]ATP, SDS-PAGE, hyperbolic fit; type: binding; conditions: read-out: Kd, app
T1 construct: full-length WT rho in pET21b (pRS96; NdeI/XhoI), C-terminal His-tag kept, expressed in E. coli BL21(DE3) (I382N in BL21SI), Ni-NTA and heparin-Sepharose; homo-hexamer; 419 residues natural length
T1 sequence (P0AG30 whole entry G51V): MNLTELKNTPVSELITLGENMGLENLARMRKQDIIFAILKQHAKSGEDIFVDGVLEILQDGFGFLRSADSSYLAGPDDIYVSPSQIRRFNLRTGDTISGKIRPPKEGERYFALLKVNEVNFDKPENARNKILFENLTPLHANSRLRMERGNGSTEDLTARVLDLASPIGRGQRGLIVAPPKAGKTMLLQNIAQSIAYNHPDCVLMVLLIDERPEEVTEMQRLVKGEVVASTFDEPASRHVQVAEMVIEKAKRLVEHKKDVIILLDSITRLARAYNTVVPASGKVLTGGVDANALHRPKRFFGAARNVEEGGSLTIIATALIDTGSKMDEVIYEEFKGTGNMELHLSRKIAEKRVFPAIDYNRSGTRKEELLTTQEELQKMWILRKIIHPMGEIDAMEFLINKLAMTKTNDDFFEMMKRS
Excerpt: (§1) UV cross-linking of [γ-32P]ATP, SDS-PAGE, hyperbolic fit on Rho

[2] = target: T2, Rho (Escherichia coli, UniProt P0AG30, P279S); experiment: as above; type: binding; conditions: read-out: Kd, app
T2 construct: full-length WT rho in pET21b (pRS96; NdeI/XhoI), C-terminal His-tag kept, expressed in E. coli BL21(DE3) (I382N in BL21SI), Ni-NTA and heparin-Sepharose; homo-hexamer; 419 residues natural length
T2 sequence (P0AG30 whole entry P279S): as the sequence (P0AG30 whole entry G51V) above, with V51G, P279S counted along it
Excerpt: as §1

[3] = target: T3, Rho (Escherichia coli, UniProt P0AG30, I382N); experiment: as above; type: binding; conditions: read-out: Kd, app
T3 construct: full-length WT rho in pET21b (pRS96; NdeI/XhoI), C-terminal His-tag kept, expressed in E. coli BL21(DE3) (I382N in BL21SI), Ni-NTA and heparin-Sepharose; homo-hexamer; 419 residues natural length
T3 sequence (P0AG30 whole entry I382N): as the sequence (P0AG30 whole entry G51V) above, with V51G, I382N counted along it
Excerpt: as §1

[4] = target: T4, Rho (Escherichia coli, UniProt P0AG30, G324D); experiment: as above; type: binding; conditions: read-out: Kd, app
T4 construct: full-length WT rho in pET21b (pRS96; NdeI/XhoI), C-terminal His-tag kept, expressed in E. coli BL21(DE3) (I382N in BL21SI), Ni-NTA and heparin-Sepharose; homo-hexamer; 419 residues natural length
T4 sequence (P0AG30 whole entry G324D): as the sequence (P0AG30 whole entry G51V) above, with V51G, G324D counted along it
Excerpt: as §1

[5] = target: T5, Rho (Escherichia coli, UniProt P0AG30, Y274D); experiment: as above; type: binding; conditions: read-out: Kd, app
T5 construct: full-length WT rho in pET21b (pRS96; NdeI/XhoI), C-terminal His-tag kept, expressed in E. coli BL21(DE3) (I382N in BL21SI), Ni-NTA and heparin-Sepharose; homo-hexamer; 419 residues natural length
T5 sequence (P0AG30 whole entry Y274D): as the sequence (P0AG30 whole entry G51V) above, with V51G, Y274D counted along it
Excerpt: as §1

[6] = target: T6, Rho (Escherichia coli, UniProt P0AG30, N340S); experiment: as above; type: binding; conditions: read-out: Kd, app
T6 construct: full-length WT rho in pET21b (pRS96; NdeI/XhoI), C-terminal His-tag kept, expressed in E. coli BL21(DE3) (I382N in BL21SI), Ni-NTA and heparin-Sepharose; homo-hexamer; 419 residues natural length
T6 sequence (P0AG30 whole entry N340S): as the sequence (P0AG30 whole entry G51V) above, with V51G, N340S counted along it
Excerpt: as §1

[7] = tested on: T7, Nc1ncnc2c1ncn2[C@@H]1O[C@H](COP(=O)(O)OP(=O)(O)OP(=O)(O)O)[C@@H](O)[C@H]1O; experiment: ATPase assay, Pi release by TLC, Lineweaver-Burk; type: biochemical, Escherichia coli; conditions: poly(C) 10 μM as cofactor, 5 nM Rho, 25 mM Tris-HCl pH 8.0, 50 mM KCl, 5 mM MgCl2, 1 mM DTT, 0.1 mg/ml BSA, 30 °C
T7 construct: full-length WT rho in pET21b (pRS96; NdeI/XhoI), C-terminal His-tag kept, expressed in E. coli BL21(DE3) (I382N in BL21SI), Ni-NTA and heparin-Sepharose; homo-hexamer; 419 residues natural length
Excerpt: ATPase assay, Pi release by TLC, Lineweaver-Burk on Rho

In the case of Nc1ncnc2c1ncn2[C@@H]1O[C@H](COP(=O)(O)OP(=O)(O)OP(=O)(O)O)[C@@H](O)[C@H]1O [ATP], the Kd [1] is reported as 1350 ± 260 nM, the Kd [2] is reported as 4280 ± 540 nM and the Kd [3] is reported as 600 ± 100 nM. The Kd [4] was 2450 ± 150 nM, the Kd [5] was 3150 ± 260 nM and the Kd [6] was 1090 ± 120 nM.

With Rho (Escherichia coli K-12; Y80C) the Km [7] was 43.2 ± 0.8 µM.
